Measurements: patent publication US20160050895A1, “TRANSGENIC NON-HUMAN ORGANISMS WITH NON-FUNCTIONAL TSPO GENES” (AUSTRALIAN NUCLEAR SCIENCE AND TECHNOLOGY ORGANIZATION, priority 2013, published 2016)

Experiments:
TSPO [1] = assay: Radioligand membrane saturation binding with 3H-PK11195; set-up: species or system mouse; settings: testicular and kidney tissue; TSPO-/- mice compared to TSPO+/+ mice
Description: (§1) Tissue samples were homogenised with T25 digital Ultra-Turrax homogenizer (Ika, Wilmington, N.C., USA) at speed setting 5 or 20000 rpm in approximately 45 mL of ice-cold TRIS buffer (pH 7.4), collected by centrifugation at 48000 g and the supernatant was then discarded. The procedure was then immediately repeated, this acts as an extra wash step to remove any soluble interfering substances to radioligand binding (Byland et al. 1993). Following the second centrifugation and removal ofsupernatant the samples were resuspended in approximately 50 volumes of ice-cold TRIS buffer (pH 7.4). Samples were aliquoted stored in −80° C. until required.
(§2) For TSPO knock-out mice studies, radioligand binding was performed using 3H-PK11195 racemate across a range of concentrations (FIG. 4). PK11195 is a TSPO specific probe. Total and non-specific binding was determined through 8 concentrations of 3H-PK11195 ranging from 0.56 nM to 20 nM. Non-specific binding was determined by the addition of 5 μM PK11195 to all concentrations of 3H-PK11195. […]
(§3) Organs were homogenised, washed twice in ice-cold 50 mM Tris-HCl (pH 7.4) by centrifugation at 48000×g, resuspended in 50 volumes of ice-cold 50 mM Tris-HCl, and protein concentration was determined using a BCA protein assay kit (Thermo Fisher Scientific). […] Non-specific binding was determined with 5 μM PK11195. […]

TSPO [2] = biological target: TSPO (Mus musculus, UniProt P50637); assay: as above; set-up: Snap-frozen tissues were sectioned at 20 μm in a cryostat; from tissue; host or cells: mouse organ sections (brain, retina/eye, heart, adrenal, kidney, testis, spleen), C57BL/6 background; settings: testicular and kidney tissue; TSPO+/- mice compared to TSPO+/+ mice
Description: as §1, §2, §3

SMILES: CC[C@@H](C)N(C)C(=O)c1cc2ccccc2c(-c2ccccc2Cl)n1 [[^3H]PK11195]
- Specific binding using [3H]PK11195 (TSPO [1]): close to zero signal
- Specific binding using [3H]PK11195 (TSPO [2]): approximately half the signal
